Assay results as given in patent US20260048060A1, “POLYCYCLIC THYROID HORMONE b RECEPTOR AGONIST AND USE THEREOF” (CASCADE PHARMACEUTICALS, INC., priority 2022, published 2026).

Target: T1, THRβ (Homo sapiens, UniProt P10828)
T1 construct: expressed in transfected cells; host or cells: HEK293T
T1 sequence (P10828 217-461): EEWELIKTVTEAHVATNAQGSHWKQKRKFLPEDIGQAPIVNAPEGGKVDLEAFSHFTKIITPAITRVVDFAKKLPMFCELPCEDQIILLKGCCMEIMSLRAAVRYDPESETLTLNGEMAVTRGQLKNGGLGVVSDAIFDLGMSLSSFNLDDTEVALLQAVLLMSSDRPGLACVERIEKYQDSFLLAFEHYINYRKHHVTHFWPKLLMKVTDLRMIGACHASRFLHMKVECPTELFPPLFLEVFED
Experiment: Reporter gene (GAL4-THRβ-LBD / Dual-Glo luciferase) agonist activity assay in HEK293T cells
Format: cell-based
Conditions: ratio of reporter gene EC50 values THRα/THRβ
Text: Experimental Example 1: Detection of THRα and THRβ Agonist Activities of Compounds Based on Reporter Gene Activity Assay Method
1.1 Construction and Preparation of Plasmids pGAL4-THR-LBD and pG5-Luc
The pGAL4-THRα-LBD and pGAL4-THRβ-LBD plasmids used in the reporter gene assay system were constructed by a conventional molecular cloning method comprising the following main steps: the cDNA sequences of THRα (NM_003250) and THRβ (NM_000461) corresponding to the amino acid sequences of THRα (163-407AA) and THRβ (217-461AA) were inserted into the BamHI and NotI enzyme digestion sites of the pGAL4 vector by the PCR technique respectively to obtain the pGAL4-THRα-LBD and pGAL4-THRβ-LBD plasmids; the pG5-Luc (#E249A) and pRL-TK (#E2241) plasmids were purchased from Promega; the plasmids were transfected into the E. coli DH5α by the CaCl2 method, and after further culture and amplification, the plasmids were purified by Plasmid Extraction Kits (TIANGEN, #D107) to obtain the corresponding plasmid DNAs.
1.2 Co-Transfection of Plasmids into HEK293T Cells and Treatment with Compounds
The HEK293T cells were inoculated into a 96-well plate at a density of 1×10^4/well the day before plasmid transfection. Cell transfection was conducted according to the instructions of the transfection reagent FuGENE® HD (Promega, #E2311). The main steps were as follows: taking one well as an example here, the plasmids pGAL4-THRα-LBD or pGAL4-THRβ-LBD, pG5-Luc, and pRL-TK were added in the proportions of 20 ng, 50 ng, and 5 ng to 10 μL of Opti-MEM™ I medium (Gibco, #11058021) and mixed well; subsequently, 0.25 uL of FuGENE® HD was added, mixed well, and then left at room temperature for 5 min; afterwards, 10 μL of the mixture was added to the cell wells containing 100 μL of culture medium. After cell co-transfection for 6 h, the compound was diluted in a 3-fold gradient with dimethyl sulfoxide at the highest concentration of 1 uM. The compound was added to the cell culture medium at a total of 10 concentrations for treatment for 24 h. There were a total of two duplicate wells for each concentration. Triiodothyronine (T3) was used as the positive control.
1.3 Dual-Glo Luciferase Assay
After the cells were treated with the compound for 24 h, the cells were assayed according to the instructions of Dual-Glo® Luciferase Assay System (Promega, #E2940). The main steps were as follows: 50 μL of culture medium was aspirated from each well and discarded, and then 50 μL of Dual-Glo® Luciferase reagent was added and oscillated at room temperature for 10 min; 80 μL of lysis reaction solution was measured into a white opaque optiPlate-96-well plate, and the luminescence signal value (Firefly-Luc) of the Firefly luciferase was detected using an MD i3x multi-mode microplate reader; 40 μL of Dual-Glo® Stop & Glo® reagent was then added, and oscillated at room temperature for 10 min; the luminescence signal value (Renilla-Luc) of the Renilla luciferase was then detected using an MD i3x multi-mode microplate reader. The Firefly-Luc/Renilla-Luc ratio was used as the activation activity of the compound against THR, and the ratio in the solvent DMSO group was used for normalization; the dose-response curve was fitted with four parameters using the GraphPad Prism6.0 software, and the EC50 value was calculated.

Selectivity (THRα/THRβ) | SMILES
† (†: 5 ≥ THRα/β;) | NC(=O)c1cc(Cl)ccc1OCc1c(Cl)cc(-n2ncc(=O)[nH]c2=O)cc1Cl [Compound 32]
† (†: 5 ≥ THRα/β;) | NC(=O)c1cc(F)ccc1OCc1c(Cl)cc(-n2ncc(=O)[nH]c2=O)cc1Cl [Compound 37]
† (†: 5 ≥ THRα/β;) | CNC(=O)c1ccccc1OCc1c(Br)cc(-n2ncc(=O)[nH]c2=O)cc1Br [Compound 39]
† (†: 5 ≥ THRα/β;) | CCNC(=O)c1ccccc1OCc1c(Cl)cc(-n2ncc(=O)[nH]c2=O)cc1Cl [Compound 43]
† (†: 5 ≥ THRα/β;) | CNC(=O)c1cscc1OCc1c(Cl)cc(-n2ncc(=O)[nH]c2=O)cc1Cl [Compound 46]
† (†: 5 ≥ THRα/β;) | CNC(=O)c1sccc1OCc1c(Cl)cc(-n2ncc(=O)[nH]c2=O)cc1Cl [Compound 47]
† (†: 5 ≥ THRα/β;) | CNC(=O)c1ccccc1OCc1c(Cl)cc(-n2nc(C)c(=O)[nH]c2=O)cc1Cl [Compound 51]
† (†: 5 ≥ THRα/β;) | CNC(=O)c1ccccc1OCc1c(Cl)cc(-n2nc(C(F)(F)F)c(=O)[nH]c2=O)cc1Cl [Compound 52]
†† (††: 10 ≥ THRα/β > 5;) | CNC(=O)c1ccccc1OCc1c(Br)cc(-n2nc(C(F)F)c(=O)[nH]c2=O)cc1Br [Compound 56]
† (†: 5 ≥ THRα/β;) | NC(=O)c1ccccc1OCc1c(Br)cc(-n2nc(C(F)F)c(=O)[nH]c2=O)cc1Br [Compound 57]
† (†: 5 ≥ THRα/β;) | CNC(=O)c1ccccc1OCc1c(Cl)cc(-c2nn(C)c(=O)[nH]c2=O)cc1Cl [Compound 59]
† (†: 5 ≥ THRα/β;) | CNC(=O)c1ccccc1OCc1c(Cl)cc(-c2nn(C(F)F)c(=O)[nH]c2=O)cc1Cl [Compound 60]
† (†: 5 ≥ THRα/β;) | CNC(=O)c1ccccc1OCc1c(C)cc(-n2ncc(=O)[nH]c2=O)cc1Cl [Compound 61]
†† (††: 10 ≥ THRα/β > 5;) | CNC(=O)c1cscc1OCc1c(Cl)cc(-n2nc(C(F)F)c(=O)[nH]c2=O)cc1Cl [Compound 62]
† (†: 5 ≥ THRα/β;) | CNC(=O)c1sccc1OCc1c(Cl)cc(-n2nc(C(F)F)c(=O)[nH]c2=O)cc1Cl [Compound 63]
† (†: 5 ≥ THRα/β;) | NC(=O)c1cc(Br)ccc1OCc1c(Cl)cc(-n2ncc(=O)[nH]c2=O)cc1Cl [Compound 64]
† (†: 5 ≥ THRα/β;) | Cc1ccc(OCc2c(Cl)cc(-n3ncc(=O)[nH]c3=O)cc2Cl)c(C(N)=O)c1 [Compound 68]
†† (††: 10 ≥ THRα/β > 5;) | NC(=O)c1cc(-n2cccc2)ccc1OCc1c(Cl)cc(-n2ncc(=O)[nH]c2=O)cc1Cl [Compound 70]
† (†: 5 ≥ THRα/β;) | CNC(=O)c1ccc(OCc2c(Cl)cc(-n3ncc(=O)[nH]c3=O)cc2Cl)cc1 [Compound 76]

Selectivity (THRα/THRβ) | SMILES
†† (††: 10 ≥ THRα/β > 5;) | NC(=O)c1cc(C2CC2)ccc1OCc1c(Cl)cc(-n2ncc(=O)[nH]c2=O)cc1Cl [Compound 82]
†††† (††††: 100 ≥ THRα/β > 20) | Cc1ccc(OCc2c(Br)cc(-n3ncc(=O)[nH]c3=O)cc2Br)c(C(N)=O)c1 [Compound 83]
† (†: 5 ≥ THRα/β;) | CNC(=O)c1cc(C)ccc1OCc1c(Cl)cc(-n2ncc(=O)[nH]c2=O)cc1Cl [Compound 84]
†††† (††††: 100 ≥ THRα/β > 20) | CNC(=O)c1cc(C)ccc1OCc1c(Br)cc(-n2ncc(=O)[nH]c2=O)cc1Br [Compound 85]
†† (††: 10 ≥ THRα/β > 5;) | Cc1ccc(OCc2c(Cl)cc(-n3nc(C(F)F)c(=O)[nH]c3=O)cc2Cl)c(C(N)=O)c1 [Compound 86]
† (†: 5 ≥ THRα/β;) | Cc1ccc(OCc2c(Br)cc(-n3nc(C(F)F)c(=O)[nH]c3=O)cc2Br)c(C(N)=O)c1 [Compound 87]
† (†: 5 ≥ THRα/β;) | CNC(=O)c1cc(C)ccc1OCc1c(Cl)cc(-n2nc(C(F)F)c(=O)[nH]c2=O)cc1Cl [Compound 88]
† (†: 5 ≥ THRα/β;) | CNC(=O)c1cc(C)ccc1OCc1c(Br)cc(-n2nc(C(F)F)c(=O)[nH]c2=O)cc1Br [Compound 89]
††† (†††: 20 ≥ THRα/β > 10;) | CNC(=O)c1sccc1OCc1c(Br)cc(-n2nc(C(F)F)c(=O)[nH]c2=O)cc1Br [Compound 90]
††† (†††: 20 ≥ THRα/β > 10;) | CNC(=O)c1cscc1OCc1c(Br)cc(-n2nc(C(F)F)c(=O)[nH]c2=O)cc1Br [Compound 91]
† (†: 5 ≥ THRα/β;) | CNC(=O)c1ccccc1OCc1c(Cl)cc(-n2nc(CF)c(=O)[nH]c2=O)cc1Cl [Compound 93]
†††† (††††: 100 ≥ THRα/β > 20) | NC(=O)c1cc(C2=CCCCC2)ccc1OCc1c(Cl)cc(-n2ncc(=O)[nH]c2=O)cc1Cl [Compound 99]
†††† (††††: 100 ≥ THRα/β > 20) | NC(=O)c1cc(C2CCCCC2)ccc1OCc1c(Cl)cc(-n2ncc(=O)[nH]c2=O)cc1Cl [Compound 100]
† (†: 5 ≥ THRα/β;) | NC(=O)c1cc(C2=CCCC2)ccc1OCc1c(Cl)cc(-n2ncc(=O)[nH]c2=O)cc1Cl [Compound 101]
†† (††: 10 ≥ THRα/β > 5;) | NC(=O)c1cc(C2CCCC2)ccc1OCc1c(Cl)cc(-n2ncc(=O)[nH]c2=O)cc1Cl [Compound 102]
† (†: 5 ≥ THRα/β;) | [2H]C([2H])(Oc1ccccc1C(=O)NC)c1c(Cl)cc(-n2nc(C(F)F)c(=O)[nH]c2=O)cc1Cl [Compound 103]
†† (††: 10 ≥ THRα/β > 5;) | [2H]C([2H])([2H])NC(=O)c1ccccc1OCc1c(Cl)cc(-n2nc(C(F)F)c(=O)[nH]c2=O)cc1Cl [Compound 104]
† (†: 5 ≥ THRα/β;) | CNC(=O)c1ccccc1OCc1c(Cl)cc(-n2nc(C(F)F)c(=O)[nH]c2=O)cc1Br [Compound 105]
